Test results as given in PubChem BioAssay (NCI).
Where “and” joins values, the source holds several entries; their conditions need not be identical. Equal values may be shown once.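 Cultured in 96-well plates, cells were exposed to test compound for 48 hours across five concentrations. Abbreviation: GI50, concentration required for 50% inhibition of growth. At the TGI there is no net growth.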

Columns and labels:
Test in all cases: NCI tumour cell line growth inhibition, 48 h
[1] = system: HCC-2998 colon
[2] = system: OVCAR-3 ovarian
[3] = system: IGROV1 ovarian
[4] = system: DU-145 prostate
[5] = system: HOP-92 NSCLC
[6] = system: SR leukemia
[7] = system: SF-539 CNS
[8] = system: TK-10 renal
[9] = system: HOP-62 NSCLC
[10] = system: UO-31 renal

| Compound | GI50 [1] | TGI [1] | GI50 [2] | TGI [2] | GI50 [3] | TGI [3] | GI50 [4] | TGI [4] | GI50 [5] | TGI [5] | GI50 [6] | TGI [6] | GI50 [7] | TGI [7] | GI50 [8] | TGI [8] | GI50 [9] | TGI [9] | GI50 [10] | TGI [10] |
| --- | --- | --- | --- | --- | --- | --- | --- | --- | --- | --- | --- | --- | --- | --- | --- | --- | --- | --- | --- | --- |
| Cc1cnc(Nc2ccc(OCCN3CCCC3)cc2)nc1Nc1cccc(S(=O)(=O)NC(C)(C)C)c1 | 0.409 µM and 1.43 µM | 4.43 µM and > 7.01 µM | 0.464 µM and 1.36 µM | 14.7 µM and > 10 µM | 0.0833 µM and 0.558 µM | 1.75 µM and 4.49 µM | 0.252 µM and 1.16 µM | 13.6 µM and > 10 µM | 0.196 µM and 0.384 µM | 2.75 µM and 1.88 µM | 0.247 µM and 0.502 µM | 2.34 µM and 5.11 µM | 0.332 µM and 1.52 µM | 2.15 µM and 4.91 µM | 0.149 µM and 0.424 µM | 3.7 µM and 1.85 µM | 0.305 µM and 0.848 µM | 9.5 µM and > 8.68 µM | 0.221 µM and 0.656 µM | 1.99 µM and 2.44 µM |
| COc1cc2c3c(c1OC)C1(C=CC(=O)C=C1)CC3NCC2 (stereo not drawn) |  | > 100 µM |  | > 100 µM |  | > 100 µM |  | > 100 µM |  | > 100 µM |  | > 100 µM |  | > 100 µM |  | > 100 µM |  | > 100 µM |  |  |
| CC(=O)c1cc(-c2ccccc2N)n(-c2ccc3c(c2)OCO3)c1C | 0.304 µM | 16.3 µM | 0.066 µM | 0.537 µM | 0.529 µM | > 100 µM | 0.0408 µM | > 100 µM | 0.149 µM | 24.8 µM | 0.223 µM | 19.1 µM | 0.181 µM | 0.487 µM | 0.623 µM | > 100 µM | 0.435 µM | > 100 µM | 0.696 µM | 45.5 µM |
| COC(=O)c1ccc(CN2C(=O)C(Cl)=C(Nc3ccc(OC)c(Cl)c3)C2=O)cc1 |  |  | 21.6 µM | > 50 µM | 10.6 µM | > 50 µM | 21.8 µM | > 50 µM | > 50 µM | > 50 µM | 4.08 µM | 36.9 µM |  |  | > 50 µM | > 50 µM | 22.7 µM | > 50 µM | 31.8 µM | > 50 µM |
| COc1cc2c(c(OC)c1OC)-c1ccc(O)c(=O)cc1[C@@H](NC(C)=O)CC2 | 7.95 µM | > 100 µM and 34.4 µM | 4.35 µM | > 100 µM | 4.76 µM | > 100 µM and 82.4 µM | 9.82 µM | > 100 µM | 9.92 µM | > 100 µM and 58.3 µM | 4.74 µM | 97.9 µM and 18.1 µM | 6.08 µM | 45.5 µM and 44 µM |  | > 100 µM | 10.7 µM | > 100 µM and 65.9 µM | 4.42 µM | 63.8 µM and 89 µM |
| CCCCN(CC)c1ncnc2ccc(Br)cc12 | 20.5 µM | 44.2 µM | 15.8 µM | 32.5 µM | 16.7 µM | > 100 µM | 19.4 µM | 46.8 µM | 9.44 µM | 33.8 µM | 8.42 µM | 34.2 µM |  |  | 19.7 µM | 39.8 µM | 16.9 µM | 34 µM | 19.9 µM | 98.7 µM |
| COc1cc2c3c(ncc2c(OC)c1OC)-c1cc2c(cc1C3)OCO2 | > 100 µM | > 100 µM |  |  |  |  | 26.9 µM | > 100 µM | 61.1 µM | > 100 µM | 0.25 µM | 17.6 µM |  |  | 19.3 µM | 46.5 µM |  |  | 19.8 µM | 68 µM |
| CCOC(=O)Nc1nc2cc(OCC)ccc2s1 | > 41.3 µM | > 100 µM | 35 µM | > 100 µM | > 91.1 µM | > 100 µM | > 100 µM | > 100 µM | > 100 µM | > 100 µM | 1.52 µM | > 100 µM | > 100 µM | > 100 µM | > 72.9 µM | > 100 µM | 38.4 µM | > 100 µM | > 100 µM | > 100 µM |
| COC(=O)[C@@]1(C)CCC[C@]2(C(=O)O)C3Cc4occc4[C@H](C)[C@@H]3CCC21 (stereo partly drawn) |  | > 100 µM |  | > 100 µM |  | > 100 µM |  | > 100 µM |  | 81 µM |  | > 100 µM |  | > 100 µM |  | > 100 µM |  | > 100 µM |  | > 100 µM |
| CCCCN(CCCC)CCc1c(C)cc(C)c(CCN(CCCC)CCCC)c1O | 3.17 µM | 32.6 µM |  |  | 3.69 µM | 35.6 µM | 3.76 µM | > 100 µM |  |  | 2.16 µM | 12.7 µM | 3.51 µM | 28.2 µM | 3.03 µM | > 100 µM | 3.3 µM | 16.8 µM | 2.69 µM | 16.8 µM |
| Nc1cc2[nH]cnc2c(=O)[nH]1 |  | > 300 µM |  | 92.4 µM |  | > 300 µM |  | > 300 µM |  | > 300 µM |  | > 94.9 µM |  | > 234 µM |  | > 300 µM |  | > 191 µM |  | > 300 µM |
| C/C(=C(/c1ccc(O)cc1)c1ccc(Cl)cc1)c1ccccc1 | 0.612 µM | 1.51 µM | 0.552 µM | 1.31 µM | 0.671 µM | 2.22 µM | 0.719 µM | 1.91 µM | 0.448 µM | 1.09 µM | 0.92 µM | 7.98 µM | 0.545 µM | 1.25 µM | 1.72 µM | 5 µM | 0.546 µM | 1.37 µM | 0.509 µM | 1.57 µM |
| CC(C)(C)n1cc(-c2ccnc(NCCCNS(=O)(=O)c3ccc(Br)cc3)c2)c(-c2cccc(O)c2)n1 | 1.92 µM | 3.48 µM | 2.15 µM | 4.15 µM | 1.91 µM | 3.93 µM | 2.1 µM | 4.23 µM | 1.56 µM | 3.43 µM |  |  | 1.7 µM | 3.17 µM | 2.51 µM | 6.62 µM | 2.05 µM | 4.2 µM | 1.66 µM | 3.89 µM |
| Oc1c(Cl)cc(Cl)cc1Sc1cc(Cl)cc(Cl)c1O | 3.7 µM | 14.7 µM | 3.66 µM and 2.96 µM | 11.3 µM and 10.2 µM | 6.03 µM and 2.97 µM | 26.2 µM and 15 µM | 5.01 µM and 4.18 µM | 20.8 µM and 15.5 µM | 1.65 µM | 4.47 µM and 4.65 µM | 3.09 µM and 4.96 µM | 13.6 µM and > 100 µM | 3.46 µM and 3.4 µM | 16.1 µM and 11.8 µM | 3.99 µM | 11.6 µM | 3.37 µM and 2.17 µM | 14.9 µM and 5.66 µM | 2.46 µM and 2.02 µM | 11.6 µM and 9.32 µM |
